Results published in Sander's compilation of Henry's law constants.
Each block holds one compound with its values, some of them ahead of it.

Legend:
[1] = Henry solubility constant Hcp at 310 K (mol/(m3 Pa))
[2] = Henry solubility constant Hcp at 298.15 K (mol/(m3 Pa))
[3] = Henry solubility constant Hcp at 296 K (mol/(m3 Pa))
[4] = Henry solubility constant Hcp at 293 K (mol/(m3 Pa)); conditions: reference: Yu (1992)
[5] = reference: Stoelting and Longshore (1972)
[6] = reference: Smith et al. (1981b)
[7] = reference: Xu and Kropscott (2014)
[8] = reference: Power and Stegall (1970)
[9] = reference: Bissonette et al. (1990)
[10] = reference: Miller and Stuart (2000)
[11] = reference: Sanemasa et al. (1981)
[12] = reference: Järnberg and Johanson (1995)

Henry solubility constant Hcp at 310 K ([1]; reference: Munson et al. (1964)): 0.00033
Henry solubility constant Hcp at 310 K [1, 5]: 0.00032
Henry solubility constant Hcp [2, 6]: 0.00055
SMILES: C=COCC(F)(F)F [(2,2,2-trifluoroethoxy)-ethene]

Henry solubility constant Hcp at 296 K ([3]; reference: David et al. (2000)): 7.7e-07
Henry solubility constant Hcp [2, 7]: 1.3e-06
SMILES: C[Si](C)(C)O[Si](C)(C)C [hexamethyldisiloxane]

Henry solubility constant Hcp at 310 K ([1]; reference: Longo et al. (1970)): 1.7e-06
Henry solubility constant Hcp at 310 K [1, 8]: 1.7e-06
Henry solubility constant Hcp ([2]; reference: Ashton et al. (1968)): 2.4e-06
Henry solubility constant Hcp ([2]; reference: Bullister et al. (2002)): 2.3e-06
Henry solubility constant Hcp ([2]; reference: Cosgrove and Walkley (1981)): 2.5e-06
Henry solubility constant Hcp ([2]; reference: Friedman (1954)): 2.2e-06
Henry solubility constant Hcp ([2]; reference: Park et al. (1982)): 2.4e-06
SMILES: FS(F)(F)(F)(F)F [sulfur hexafluoride]

Henry solubility constant Hcp at 296 K [3, 10]: 0.0042
Henry solubility constant Hcp ([2]; reference: Arp and Schmidt (2004)): 0.0061
Henry solubility constant Hcp ([2]; reference: Haimi et al. (2006)): 0.0064
Henry solubility constant Hcp ([2]; reference: Hwang et al. (2010)): 0.12
Henry solubility constant Hcp ([2]; reference: Sieg et al. (2009)): 0.0063
SMILES: CCOC(C)(C)C [ethyl tert-butyl ether]

Henry solubility constant Hcp at 310 K ([1]; reference: Lerman et al. (1983)): 0.0017
Henry solubility constant Hcp at 310 K [1, 5]: 0.0018
Henry solubility constant Hcp [2, 6]: 0.0029
SMILES: COC(F)(F)C(Cl)Cl [2,2-dichloro-1,1-difluoro-1-methoxyethane]

More lines, now with the values behind:

SMILES: [Ne] [neon]
Henry solubility constant Hcp at 310 K [1, 8]: 4.3e-06
Henry solubility constant Hcp ([2]; reference: Crovetto et al. (1982)): 4.4e-06
Henry solubility constant Hcp ([2]; reference: Krause and Benson (1989)): 4.5e-06
Henry solubility constant Hcp ([2]; reference: Lannung (1930)): 4.6e-06
Henry solubility constant Hcp ([2]; reference: Morrison and Johnstone (1954)): 4.5e-06
Henry solubility constant Hcp ([2]; reference: von Antropoff (1910)): 6.6e-06

SMILES: Cc1cccc(C)c1 [1,3-dimethylbenzene]
Henry solubility constant Hcp at 310 K ([1]; reference: McIntosh and Heffron (2000)): 0.00066
Henry solubility constant Hcp [2, 9]: 0.0014
Henry solubility constant Hcp ([2]; reference: Li et al. (2008)): 0.0014
Henry solubility constant Hcp ([2]; reference: Tsibul’skii et al. (1979)): 0.0018

SMILES: CCc1ccccc1 [ethylbenzene]
Henry solubility constant Hcp at 296 K [3, 10]: 0.0016
Henry solubility constant Hcp ([2]; reference: Allen et al. (1998)): 0.0013
Henry solubility constant Hcp [2, 9]: 0.0011
Henry solubility constant Hcp ([2]; reference: Brown and Wasik (1974)): 0.0013
Henry solubility constant Hcp ([2]; reference: Ervin et al. (1980)): 0.0014
Henry solubility constant Hcp ([2]; reference: Hartkopf and Karger (1973)): 0.0016
Henry solubility constant Hcp ([2]; reference: Heidman et al. (1985)): 0.0013
Henry solubility constant Hcp ([2]; reference: Li et al. (2008)): 0.0014
Henry solubility constant Hcp ([2]; reference: Lodge and Danso (2007)): 0.0011
Henry solubility constant Hcp ([2]; reference: Mackay et al. (1979)): 0.0012
Henry solubility constant Hcp ([2]; reference: Perlinger et al. (1993)): 0.0013
Henry solubility constant Hcp ([2]; reference: Robbins et al. (1993)): 0.0013
Henry solubility constant Hcp [2, 11]: 0.0014
Henry solubility constant Hcp ([2]; reference: Sieg et al. (2009)): 0.0013
Henry solubility constant Hcp ([2]; reference: Turner et al. (1996)): 0.0011
Henry solubility constant Hcp ([2]; reference: Warner et al. (1980)): 0.0015

SMILES: CCOCC [diethyl ether]
Henry solubility constant Hcp at 293 K [4]: 0.0033
Henry solubility constant Hcp at 310 K ([1]; reference: Brody et al. (1971)): 0.0063
Henry solubility constant Hcp at 310 K ([1]; reference: Eger et al. (1963)): 0.0051
Henry solubility constant Hcp ([2]; reference: Bachofen and Farhi (1971)): 0.013
Henry solubility constant Hcp ([2]; reference: Nielsen et al. (1994)): 0.011
Henry solubility constant Hcp ([2]; reference: Ondo and Dohnal (2007)): 0.01
Henry solubility constant Hcp ([2]; reference: Signer et al. (1969)): 0.0078

SMILES: C=C(C)C1CC=C(C)CC1 (stereo not given) [1-methyl-4-(1-methylethenyl)-cyclohexene]
Henry solubility constant Hcp at 310 K ([1]; reference: Falk et al. (1990)): 0.0007
Henry solubility constant Hcp ([2]; reference: Copolovici and Niinemets (2007)): 0.00026
Henry solubility constant Hcp ([2]; reference: Fichan et al. (1999)): 0.0007
Henry solubility constant Hcp ([2]; reference: Leng et al. (2013)): 0.00048

SMILES: CCCCOC(=O)c1ccccc1C(=O)OCCCC [dibutyl phthalate]
Henry solubility constant Hcp at 296 K ([3]; reference: Atlas et al. (1983)): 5.5

SMILES: C[Si]1(C)O[Si](C)(C)O[Si](C)(C)O[Si](C)(C)O[Si](C)(C)O1 [decamethylcyclopentasiloxane]
Henry solubility constant Hcp at 296 K ([3]; reference: David et al. (2000)): 7.4e-05
Henry solubility constant Hcp ([2]; reference: Xu and Kropscott (2012)): 3e-07
Henry solubility constant Hcp [2, 7]: 2.8e-07

SMILES: [C-]#[O+] [carbon monoxide]
Henry solubility constant Hcp at 310 K [1, 8]: 8.3e-06
Henry solubility constant Hcp ([2]; reference: Bunsen (1855a)): 9.5e-06
Henry solubility constant Hcp ([2]; reference: Meadows and Spedding (1974)): 7.9e-05
Henry solubility constant Hcp ([2]; reference: Rettich et al. (1982)): 9.7e-06
Henry solubility constant Hcp ([2]; reference: Schmidt (1979)): 7e-06
Henry solubility constant Hcp ([2]; reference: Winkler (1901)): 9.4e-06

SMILES: Cc1cccc(C)c1C [1,2,3-trimethylbenzene]
Henry solubility constant Hcp at 310 K [1, 12]: 0.0011

SMILES: Cc1cc(C)cc(C)c1 [1,3,5-trimethylbenzene]
Henry solubility constant Hcp at 310 K [1, 12]: 0.00048
Henry solubility constant Hcp [2, 11]: 0.0011
